≈ marks a conversion by molar mass, not a printed value. Entries after “also recorded” stand apart in the source; their conditions may differ. Like-named read-outs stand apart in the source and are kept apart here.
Assays:
P388 leukemia [1] = conditions: mice implanted with the P388 leukemia model; cited from earlier work
[2] = Solubility in water and ethanol; format: physicochemical
P388 leukemia [3] = system: P388 leukemia
[4] = cited from earlier work
[5] = powdered form; for % of degradation products after 1 month at 30° C. with 75% relative humidity: open bottle
[6] = listed as hemiethanolate compound of formula 3 in crystalline form

4′-demethylepipodophyllotoxin 2″,3″-bispentafluoro-phenoxyacetyl-4″,6″-ethylidene-β-D-glucoside 4′-phosphate [Compound of formula 1]
survival (P388 leukemia [1]): long survival | stability on conservation (conserved at 4° C. and, a fortiori, at ambient temperature): degrades over time | stability (usual conditions of neutral and acid pH and of temperature): stable

COc1cc(C2c3cc4c(cc3[C@@H](OC3OC5COC(C)OC5C(OC(=O)COc5c(F)c(F)c(F)c(F)c5F)C3OC(=O)COc3c(F)c(F)c(F)c(F)c3F)[C@H]3COC(=O)C23)OCO4)cc(OC)c1OP(=O)(O)O (stereo partly drawn) [Compound of formula 2 in amorphous form, 4′-demethylepipodophyllotoxin 2″,3″-bispentafluoro-phenoxyacetyl-4″,6″-ethylidene-β-D-glucoside 4′-phosphate]
solubility in ethanol (in words) ([2]; ethanol): soluble | solubility in water (in words) ([2]; water): is not | antitumor activity (in words) (P388 leukemia [3]; mouse, in vivo): does not induce any significant antitumor activity | in vivo antitumor activity (in words) (P388 leukemia [3]; mouse, in vivo): did not have the in vivo activity | T/C values (%) (P388 leukemia [3]; mouse, in vivo, ip, 40 mg/kg): 100% | T/C values (%) (P388 leukemia [3]; mouse, in vivo, ip, 80 mg/kg): 114% | T/C values (%) (P388 leukemia [3]; mouse, in vivo, ip, 160 mg/kg): 157%

COc1cc(C2c3cc4c(cc3[C@@H](OC3OC5COC(C)OC5C(OC(=O)COc5c(F)c(F)c(F)c(F)c5F)C3OC(=O)COc3c(F)c(F)c(F)c(F)c3F)[C@H]3COC(=O)C23)OCO4)cc(OC)c1OP(=O)(O)O (stereo partly drawn) [Crystalline formula 2, 4′-demethylepipodophyllotoxin 2″,3″-bispentafluorophenoxyacetyl-4″,6″-ethylidene-β-D-glucoside 4′-phosphate]
in vivo antitumor activity (in words) (P388 leukemia [3]; mouse, in vivo): exhibits the required pharmacological activity; also recorded: high-level antitumor activity | prolongation of the survival of the animals (P388 leukemia [3]; mouse, in vivo, 40 mg/kg): 43% | prolongation of the survival of the animals (P388 leukemia [3]; mouse, in vivo, 160 mg/kg): 200% | T/C values (%) (P388 leukemia [3]; mouse, in vivo, ip, 40 mg/kg): 143% | T/C values (%) (P388 leukemia [3]; mouse, in vivo, ip, 80 mg/kg): 157% | T/C values (%) (P388 leukemia [3]; mouse, in vivo, ip, 160 mg/kg): 300%

COc1cc([C@@H]2c3cc4c(cc3[C@@H](O[C@@H]3O[C@@H]5CO[C@@H](C)O[C@H]5[C@H](O)[C@H]3O)[C@H]3COC(=O)[C@H]23)OCO4)cc(OC)c1OP(=O)(O)O [Etopophos]
solubility in water [4]: 100 mg/mL (≈ 150 mM)

hemiethanolate of 4′-demethylepipodophyllotoxin 2″,3″-bispentafluoro-phenoxyacetyl-4″,6″-ethylidene-β-D-glucoside 4′-phosphate
% of degradation products after 1 month at 30° C. with 75% relative humidity [5]: 1.8% | % of degradation products after 1 month at 30° C. with 75% relative humidity [5, 6]: 1.8% | % of degradation products after 1 month at 40° C. in a closed bottle [5]: 1.5% | % of degradation products after 1 month at 40° C. in a closed bottle [5, 6]: 1.5% | in vivo antitumor activity (in words) (P388 leukemia [3]; P388 leukemia model, overall, listed as compound of formula 3 in crystalline form): high-level antitumor activity | in vivo antitumor activity (in words) (P388 leukemia [3]; P388 leukemia model, overall, listed as hemiethanolate of formula 3): exhibits the required pharmacological activity | prolongation of the survival of the animals (P388 leukemia [3]; dose 40 mg/kg): 43% | T/C values (%) (P388 leukemia [3]; dose 40 mg/kg, single intraperitoneal injection on day 1, median survival treated/control x 100): 143% | T/C values (%) (P388 leukemia [3]; dose 80 mg/kg, single intraperitoneal injection on day 1, median survival treated/control x 100): 143% | prolongation of the survival of the animals (P388 leukemia [3]; dose 160 mg/kg): 229% | T/C values (%) (P388 leukemia [3]; dose 160 mg/kg, single intraperitoneal injection on day 1, median survival treated/control x 100): 329%
